System: client proteins and HSP90-related proteins in TOV-21G tumor
Test: Immunoblot: change in expression amount of proteins in TOV-21G tumor after administration
Format: in vivo, human
Conditions: 40 mg/kg tail vein
Method: Thirty micrograms of total protein was subjected to electrophoresis in 8% acrylamide gel. Then, the protein was transferred onto a PVDF membrane at a voltage of 100 V for 60 min at 4 °C. The PVDF membrane on which the protein had been transferred was blocked in TBS-Tween (0.1%) containing 5% milk at normal temperature for 60 min, followed by incubating with each of primary antibodies described below overnight at 4 °C. • Primary antibody (supplier, product number, dilution ratio, exposure time) • EGFR (Santa Cruz, sc-003, 1:500, 1 min) • HER2 (Santa Cruz, sc-284, 1:2000, 5 sec) • HER3 (Santa Cruz, sc-285, 1:400, 1 min) • Met (Santa Cruz, sc-161, 1:500, 5 min) • IGF-1R (Cell Signaling, #3027, 1:500, 15 sec) • Raf-1 (Santa Cruz, sc-133, 1:300, 5 min) • Stat3 (BD Transduction Laboratory, 610189, 1:500, 15 sec) • pAkt (Cell Signaling, #4058S, 1:500, 1 min) • Akt (Cell Signaling, #4691S, 1:2000, 15 sec) • pERK (Santa Cruz, sc-16982-R, 1:500, 1 min) • ERK (Invitrogen, 44-654G, 1:1000, 15 sec) • mTOR (Cell Signaling, #2983S, 1:500, 15 sec) • MEK (Cell Signaling, #9122S, 1:500, 1 min) • HSP90 (Enzo Life Science, SPA-830, 1:500, 15 sec) • HSP70 (Enzo Life Science, SPA-810, 1:2000, 15 sec) • Actin (Santa Cruz, sc-8432/HRP, 1:300, 5 min)
After incubation, the blot membrane was washed with TBS-Tween (0.1%) at normal temperature for 10 min three times to thereby remove excessive primary antibodies. Then, the membrane was incubated with an appropriate secondary antibody (anti-rabbit IgG HRP conjugate or anti-mouse IgG HRP conjugate) at normal temperature for 60 min. The membrane was washed with TBS-Tween (0.1%) at normal temperature for 10 min three times to thereby remove excessive secondary antibodies. Then, the membrane was incubated with ECL Western Blotting Detection Reagents (GE Healthcare) for 2 min, followed by exposing to an X-ray film. Thus, the signal of the intended protein was detected.
Tumors to be transplanted derived from human ovarian cancer cell lines SK-OV-3 and TOV-21G were prepared in the same manner as in Example 1.
Protein extraction liquid was obtained from each tumor as follows. The human ovarian cancer tumors maintained by passage in SCID mice were transplanted subcutaneously to the dorsums of SCID mice with trocars. When the tumor volume of each tumor reached about 300 mm^3, the triazole (A-1) synthesized as the HSP90 inhibitor in Synthetic Example 1 was administered into a tail vein of each of the mice at a dose of 40 mg/kg in the same manner as in Example 1. The tumors were removed before and 4 and 24 hours after administration. At each time point, the tumors were removed from three mice for the SK-OV-3 tumor and two mice for the TOV-21G tumor. Protein extraction liquids were obtained in the same manner as in Example 1. The total protein amount in each of the extraction liquids was quantified in the same manner as in Example 1.
The immunoblot method was used to verify change in expression amounts of the client proteins and the HSP90-related proteins in the SK-OV-3 and TOV-21G tumors to which the triazole compound (A-1) had been administered, in the same manner as in Example 1. The types and dilution ratios of primary antibodies and secondary antibodies used were the same as in Example 1.

With `CC(C)c1cc(-c2n[nH]c(=O)n2-c2ccc(CN3CCN(C)CC3)cc2)c(O)cc1O` [A-1, 5-(2,4-dihydroxy-5-isopropyl-phenyl)-4-[4-(4-methyl-piperazin-1-ylmethyl)-phenyl]-2,4-dihydro-[1,2,4]triazol-3-one] the “expression amount of total Akt” value was “not changed”, the “expression amount of total ERK” value was “not changed” and the “expression level of EGFR” value was “decreased”. For the same molecule, the “expression level of HER2” value was “decreased”, the “expression level of IGF-1R” value was “decreased” and the “expression level of Met” value was “decreased”. For the same molecule, the “expression level of mTOR” value was “decreased” and the “expression level of pAkt” value was “decreased”.

— US20160313301A1, “METHOD FOR PREDICTING ANTITUMOR EFFICACY OF HSP90 INHIBITOR IN CANCER TREATMENT” (NIPPON KAYAKU KABUSHIKI KAISHA, priority 2013, published 2016)
